This is an account of results in ChEMBL document CHEMBL5678818, “Discovery of potent SOS1 inhibitors that block RAS activation via disruption of the RAS-SOS1 interaction” (Proc Natl Acad Sci U S A, 2019).

Assay [1] deals with Calcium/calmodulin-dependent protein kinase type 1 (Homo sapiens) (UniProt Q14012). The assay can be described thus: Inhibition of CAMK1 (unknown origin) assessed as residual activity at 1000 nM by KINOMEscan analysis relative to control.
For assay [2], the target named is Cyclin-dependent kinase 2 (Homo sapiens) (UniProt P24941). The assay can be described thus: Inhibition of CDK2 (unknown origin) assessed as residual activity at 1000 nM by KINOMEscan analysis relative to control.
The target in assay [3] is Casein kinase I isoform gamma-3 (Homo sapiens) (UniProt Q9Y6M4). The assay can be described thus: Inhibition of CSNK1G3 (unknown origin) assessed as residual activity at 1000 nM by KINOMEscan analysis relative to control.
The target in assay [4] is Receptor tyrosine-protein kinase erbB-2 (Homo sapiens) (UniProt P04626). The assay can be described thus: Inhibition of ERBB2 (unknown origin) assessed as residual activity at 1000 nM by KINOMEscan analysis relative to control.
For assay [5], the target named is Mitogen-activated protein kinase kinase kinase kinase 5 (Homo sapiens) (UniProt Q9Y4K4). The assay can be described thus: Inhibition of MAP4K5 (unknown origin) assessed as residual activity at 1000 nM by KINOMEscan analysis relative to control.
The target of assay [6] is Cyclin-dependent kinase 14 (Homo sapiens) (UniProt O94921). The assay can be described thus: Inhibition of PFTK1 (unknown origin) assessed as residual activity at 1000 nM by KINOMEscan analysis relative to control.
Assay [7] addresses Serine/threonine-protein kinase PRP4 homolog (Homo sapiens) (UniProt Q13523). The assay can be described thus: Inhibition of PRP4 (unknown origin) assessed as residual activity at 1000 nM by KINOMEscan analysis relative to control.
Assay [8] deals with Ribosomal protein S6 kinase alpha-1 (Homo sapiens) (UniProt Q15418). The assay can be described thus: Inhibition of C-terminal RSK1 kinetic domain 2 (unknown origin) assessed as residual activity at 1000 nM by KINOMEscan analysis relative to control.
Assay [9] has as its target Serine/threonine-protein kinase 35 (Homo sapiens) (UniProt Q8TDR2). The assay can be described thus: Inhibition of STK35 (unknown origin) assessed as residual activity at 1000 nM by KINOMEscan analysis relative to control.
The target in assay [10] is T1, Mitogen-activated protein kinase kinase kinase 19 (Homo sapiens) (UniProt Q56UN5).
T1 sequence (whole entry): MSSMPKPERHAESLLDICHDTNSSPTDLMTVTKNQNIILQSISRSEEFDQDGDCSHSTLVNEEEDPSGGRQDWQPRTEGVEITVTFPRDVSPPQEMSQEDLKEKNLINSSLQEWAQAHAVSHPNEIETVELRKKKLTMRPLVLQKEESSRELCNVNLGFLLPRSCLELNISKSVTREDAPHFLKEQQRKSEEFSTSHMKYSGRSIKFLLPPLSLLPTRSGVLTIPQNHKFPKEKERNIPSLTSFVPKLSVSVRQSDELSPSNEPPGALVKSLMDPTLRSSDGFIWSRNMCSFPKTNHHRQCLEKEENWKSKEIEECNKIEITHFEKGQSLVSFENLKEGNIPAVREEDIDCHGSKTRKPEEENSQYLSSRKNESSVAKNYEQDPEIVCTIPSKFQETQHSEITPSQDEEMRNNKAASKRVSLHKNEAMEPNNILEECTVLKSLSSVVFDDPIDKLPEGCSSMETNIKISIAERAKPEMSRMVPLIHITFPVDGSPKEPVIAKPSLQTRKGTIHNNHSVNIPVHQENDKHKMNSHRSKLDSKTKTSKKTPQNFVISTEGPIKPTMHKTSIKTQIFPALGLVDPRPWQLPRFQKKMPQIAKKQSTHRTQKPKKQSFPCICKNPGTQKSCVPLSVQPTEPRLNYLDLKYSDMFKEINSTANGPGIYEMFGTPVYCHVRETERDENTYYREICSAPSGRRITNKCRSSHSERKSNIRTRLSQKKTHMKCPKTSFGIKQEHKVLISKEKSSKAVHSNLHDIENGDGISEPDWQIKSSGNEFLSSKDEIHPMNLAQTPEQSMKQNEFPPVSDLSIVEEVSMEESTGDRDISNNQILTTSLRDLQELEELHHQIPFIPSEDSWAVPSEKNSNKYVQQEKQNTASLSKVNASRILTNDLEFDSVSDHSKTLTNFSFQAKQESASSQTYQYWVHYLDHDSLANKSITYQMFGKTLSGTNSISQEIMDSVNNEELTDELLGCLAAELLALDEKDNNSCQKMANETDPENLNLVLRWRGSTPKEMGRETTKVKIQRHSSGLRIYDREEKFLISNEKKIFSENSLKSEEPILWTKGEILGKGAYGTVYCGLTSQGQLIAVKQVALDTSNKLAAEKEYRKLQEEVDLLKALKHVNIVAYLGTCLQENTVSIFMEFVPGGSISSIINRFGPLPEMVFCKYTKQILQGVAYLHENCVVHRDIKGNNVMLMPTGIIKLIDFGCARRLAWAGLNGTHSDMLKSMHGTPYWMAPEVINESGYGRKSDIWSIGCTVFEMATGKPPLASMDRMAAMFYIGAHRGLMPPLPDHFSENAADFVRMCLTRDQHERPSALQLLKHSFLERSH
The assay can be described thus: Inhibition of YSK4 (unknown origin) assessed as residual activity at 1000 nM by KINOMEscan analysis relative to control.

Receptor tyrosine-protein kinase erbB-2 (Homo sapiens), sequence (P04626 whole entry): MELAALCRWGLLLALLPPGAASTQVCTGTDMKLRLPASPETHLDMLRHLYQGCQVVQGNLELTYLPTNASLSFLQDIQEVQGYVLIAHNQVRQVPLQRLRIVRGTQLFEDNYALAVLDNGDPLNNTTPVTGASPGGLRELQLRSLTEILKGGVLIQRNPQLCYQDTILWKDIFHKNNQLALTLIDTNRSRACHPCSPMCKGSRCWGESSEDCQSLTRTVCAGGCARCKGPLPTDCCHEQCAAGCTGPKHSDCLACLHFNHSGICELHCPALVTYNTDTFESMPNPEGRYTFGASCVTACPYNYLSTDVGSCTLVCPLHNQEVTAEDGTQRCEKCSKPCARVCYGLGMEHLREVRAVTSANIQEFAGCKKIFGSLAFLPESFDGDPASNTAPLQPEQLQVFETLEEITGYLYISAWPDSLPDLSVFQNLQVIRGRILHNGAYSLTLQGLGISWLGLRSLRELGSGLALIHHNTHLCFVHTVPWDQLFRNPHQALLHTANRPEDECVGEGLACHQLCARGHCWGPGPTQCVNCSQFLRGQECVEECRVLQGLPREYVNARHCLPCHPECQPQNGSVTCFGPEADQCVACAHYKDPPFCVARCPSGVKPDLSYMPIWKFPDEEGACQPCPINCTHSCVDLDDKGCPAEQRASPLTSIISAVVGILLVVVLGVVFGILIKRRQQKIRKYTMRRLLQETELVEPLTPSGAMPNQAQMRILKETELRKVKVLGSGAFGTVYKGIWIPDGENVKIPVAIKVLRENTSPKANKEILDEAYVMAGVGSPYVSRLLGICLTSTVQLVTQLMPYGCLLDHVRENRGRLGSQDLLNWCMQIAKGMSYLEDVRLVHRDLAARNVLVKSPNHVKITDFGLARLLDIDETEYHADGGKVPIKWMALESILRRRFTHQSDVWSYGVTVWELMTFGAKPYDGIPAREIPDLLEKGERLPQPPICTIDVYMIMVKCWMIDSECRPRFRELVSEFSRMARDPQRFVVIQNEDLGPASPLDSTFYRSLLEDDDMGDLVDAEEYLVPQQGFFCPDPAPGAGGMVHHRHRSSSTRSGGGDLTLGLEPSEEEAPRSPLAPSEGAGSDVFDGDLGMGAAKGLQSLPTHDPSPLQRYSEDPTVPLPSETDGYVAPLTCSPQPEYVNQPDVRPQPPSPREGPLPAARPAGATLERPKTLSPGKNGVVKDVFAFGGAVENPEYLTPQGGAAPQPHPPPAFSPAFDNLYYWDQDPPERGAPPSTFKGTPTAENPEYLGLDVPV
Serine/threonine-protein kinase 35 (Homo sapiens), sequence (Q8TDR2 whole entry): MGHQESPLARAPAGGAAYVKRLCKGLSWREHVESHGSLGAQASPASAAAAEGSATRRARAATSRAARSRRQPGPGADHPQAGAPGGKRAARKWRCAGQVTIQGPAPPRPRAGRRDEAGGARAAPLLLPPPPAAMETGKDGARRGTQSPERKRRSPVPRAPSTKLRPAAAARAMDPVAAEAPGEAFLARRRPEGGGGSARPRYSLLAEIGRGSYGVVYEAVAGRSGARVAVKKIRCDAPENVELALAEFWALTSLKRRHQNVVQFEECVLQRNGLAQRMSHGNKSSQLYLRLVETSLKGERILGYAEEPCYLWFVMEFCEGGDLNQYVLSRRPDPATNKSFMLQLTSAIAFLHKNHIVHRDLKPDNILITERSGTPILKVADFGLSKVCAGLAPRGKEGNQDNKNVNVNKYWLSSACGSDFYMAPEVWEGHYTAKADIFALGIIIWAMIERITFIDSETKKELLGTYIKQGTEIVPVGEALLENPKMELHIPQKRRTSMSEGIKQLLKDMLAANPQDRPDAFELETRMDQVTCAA
Calcium/calmodulin-dependent protein kinase type 1 (Homo sapiens), sequence (Q14012 whole entry, looked up): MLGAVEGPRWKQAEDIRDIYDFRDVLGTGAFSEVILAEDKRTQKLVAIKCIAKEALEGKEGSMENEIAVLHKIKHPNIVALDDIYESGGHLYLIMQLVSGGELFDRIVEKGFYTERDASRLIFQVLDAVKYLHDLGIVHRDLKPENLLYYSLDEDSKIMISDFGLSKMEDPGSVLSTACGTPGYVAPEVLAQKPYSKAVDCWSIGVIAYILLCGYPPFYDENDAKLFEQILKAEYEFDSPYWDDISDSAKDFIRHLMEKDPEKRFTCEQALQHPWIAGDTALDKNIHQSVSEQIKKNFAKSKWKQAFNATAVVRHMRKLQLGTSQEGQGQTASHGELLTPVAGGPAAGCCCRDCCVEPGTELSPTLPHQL
Mitogen-activated protein kinase kinase kinase kinase 5 (Homo sapiens), sequence (Q9Y4K4 whole entry, looked up): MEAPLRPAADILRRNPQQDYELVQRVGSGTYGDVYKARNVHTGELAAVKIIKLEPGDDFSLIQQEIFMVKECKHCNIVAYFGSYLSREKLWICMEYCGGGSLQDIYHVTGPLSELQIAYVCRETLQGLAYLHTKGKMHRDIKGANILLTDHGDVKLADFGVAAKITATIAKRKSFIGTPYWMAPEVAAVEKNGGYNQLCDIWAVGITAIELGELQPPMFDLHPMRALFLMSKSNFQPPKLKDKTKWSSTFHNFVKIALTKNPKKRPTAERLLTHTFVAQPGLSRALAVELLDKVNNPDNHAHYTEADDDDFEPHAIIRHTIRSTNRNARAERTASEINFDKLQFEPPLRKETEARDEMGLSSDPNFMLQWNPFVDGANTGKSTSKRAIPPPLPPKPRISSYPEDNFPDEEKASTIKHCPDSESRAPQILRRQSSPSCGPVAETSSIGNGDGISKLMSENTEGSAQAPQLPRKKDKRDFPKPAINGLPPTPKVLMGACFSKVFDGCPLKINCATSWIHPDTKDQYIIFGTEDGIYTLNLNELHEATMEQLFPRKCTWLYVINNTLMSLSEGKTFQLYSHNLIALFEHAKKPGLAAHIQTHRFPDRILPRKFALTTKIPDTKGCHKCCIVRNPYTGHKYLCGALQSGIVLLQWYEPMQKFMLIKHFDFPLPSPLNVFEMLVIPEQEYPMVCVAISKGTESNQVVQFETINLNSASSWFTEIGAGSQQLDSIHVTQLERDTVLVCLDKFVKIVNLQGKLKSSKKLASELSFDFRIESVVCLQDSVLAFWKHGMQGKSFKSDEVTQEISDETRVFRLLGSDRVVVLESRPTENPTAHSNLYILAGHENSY
Casein kinase I isoform gamma-3 (Homo sapiens), sequence (Q9Y6M4 whole entry, looked up, canonical isoform): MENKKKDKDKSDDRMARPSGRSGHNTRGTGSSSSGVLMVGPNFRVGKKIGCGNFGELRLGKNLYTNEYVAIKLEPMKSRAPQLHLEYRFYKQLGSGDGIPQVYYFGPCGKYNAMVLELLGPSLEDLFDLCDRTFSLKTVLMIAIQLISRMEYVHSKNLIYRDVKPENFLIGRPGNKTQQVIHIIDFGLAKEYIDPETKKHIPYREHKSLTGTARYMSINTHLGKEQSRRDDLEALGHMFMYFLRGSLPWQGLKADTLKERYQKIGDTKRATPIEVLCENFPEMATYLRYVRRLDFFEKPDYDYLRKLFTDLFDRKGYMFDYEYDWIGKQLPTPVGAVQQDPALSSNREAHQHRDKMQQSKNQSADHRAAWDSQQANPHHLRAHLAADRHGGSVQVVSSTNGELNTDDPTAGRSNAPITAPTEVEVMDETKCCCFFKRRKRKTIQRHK
Cyclin-dependent kinase 14 (Homo sapiens), sequence (O94921 whole entry): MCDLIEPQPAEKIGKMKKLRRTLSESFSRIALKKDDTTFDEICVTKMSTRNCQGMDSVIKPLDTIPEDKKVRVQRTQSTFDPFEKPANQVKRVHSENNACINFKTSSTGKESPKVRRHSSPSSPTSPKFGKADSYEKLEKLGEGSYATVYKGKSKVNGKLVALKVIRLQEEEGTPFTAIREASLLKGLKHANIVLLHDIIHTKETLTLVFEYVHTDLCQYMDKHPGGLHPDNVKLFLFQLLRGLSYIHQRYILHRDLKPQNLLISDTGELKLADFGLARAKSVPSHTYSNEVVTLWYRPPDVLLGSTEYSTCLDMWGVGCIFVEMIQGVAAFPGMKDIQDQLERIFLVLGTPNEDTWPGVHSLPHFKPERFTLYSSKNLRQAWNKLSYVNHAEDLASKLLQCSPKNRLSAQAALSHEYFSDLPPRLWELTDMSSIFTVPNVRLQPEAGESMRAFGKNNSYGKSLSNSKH
Ribosomal protein S6 kinase alpha-1 (Homo sapiens), sequence (Q15418 whole entry, the tested form may be a part): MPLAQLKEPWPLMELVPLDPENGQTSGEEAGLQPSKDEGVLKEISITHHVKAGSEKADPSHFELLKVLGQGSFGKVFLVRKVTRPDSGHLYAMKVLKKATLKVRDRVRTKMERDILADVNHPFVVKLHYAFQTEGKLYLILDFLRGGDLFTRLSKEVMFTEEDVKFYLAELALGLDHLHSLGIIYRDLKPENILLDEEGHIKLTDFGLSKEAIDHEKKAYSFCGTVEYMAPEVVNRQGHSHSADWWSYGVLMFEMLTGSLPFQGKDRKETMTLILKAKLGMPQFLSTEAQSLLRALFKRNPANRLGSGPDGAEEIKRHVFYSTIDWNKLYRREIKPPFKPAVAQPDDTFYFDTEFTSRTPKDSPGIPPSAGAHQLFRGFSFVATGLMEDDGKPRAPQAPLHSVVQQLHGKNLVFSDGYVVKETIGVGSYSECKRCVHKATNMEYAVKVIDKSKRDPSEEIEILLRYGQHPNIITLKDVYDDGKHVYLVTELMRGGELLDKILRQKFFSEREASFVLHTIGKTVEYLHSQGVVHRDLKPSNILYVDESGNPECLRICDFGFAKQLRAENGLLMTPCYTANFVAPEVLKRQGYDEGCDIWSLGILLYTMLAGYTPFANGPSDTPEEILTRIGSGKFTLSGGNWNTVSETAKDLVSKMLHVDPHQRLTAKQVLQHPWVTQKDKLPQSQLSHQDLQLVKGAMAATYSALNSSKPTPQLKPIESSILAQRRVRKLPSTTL

In the case of `COc1cc2ncnc(N[C@H](C)c3cccc4ccccc34)c2cc1OC`, the Activity in assay [1] was 100%; in assay [2] it was 100%; in [3] it was 100%; in [4] it was 26%; in assay [5], 100%; in assay [6], 100%. Besides, the Activity in [7] came to 95%; in assay [8], 100%; in [9], 100%; in assay [10], 90%.
In the case of `COc1cc2nc(C)nc(N[C@H](C)c3cccc(-c4cn[nH]c4)c3)c2cc1OC`, the Activity in assay [1] is 73%; in [2], 100%; in [3] it was 80%; in assay [4], 76%; in assay [5], 96%; in [6], 93%. Also, the Activity in assay [7] was found to be 94%; in assay [8], 99%; in assay [9] it was 92%; in assay [10] it was 84%.
